Measured values as given in patent US11578084B2, “Condensed ring compounds having dopamine D3 receptor antagonistic effect” (Shionogi & Co., Ltd., priority 2018, dated 2023).

Experiments:
[1] = molecular target: human recombinant dopamine D2 receptor (Homo sapiens (Human), UniProt P14416); assay: Test of binding inhibition for dopamine D2 receptor ([3H]-Methylspiperone SPA); details: Jump-In HEK cell membranes, 1.2 nM [3H]-Methylspiperone, 120 min at 25° C.; read-out: hD2_Ki
Procedure, shortened: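 Scintillation proximity competition binding of [3H]-Methylspiperone to Jump-In HEK membranes expressing human D2 (2 μg protein/well) on WGA SPA beads (0.2 mg/well), 120 min at 25° C.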

[2] = molecular target: human recombinant dopamine D3 receptor (Homo sapiens (Human), UniProt P35462); assay: Test of binding inhibition for dopamine D3 receptor ([3H]-Methylspiperone SPA); details: Jump-In HEK cell membranes, 2 nM [3H]-Methylspiperone, 120 min at 25° C.; read-out: hD3_Ki
Sequence of human recombinant dopamine D3 receptor (P35462 whole entry): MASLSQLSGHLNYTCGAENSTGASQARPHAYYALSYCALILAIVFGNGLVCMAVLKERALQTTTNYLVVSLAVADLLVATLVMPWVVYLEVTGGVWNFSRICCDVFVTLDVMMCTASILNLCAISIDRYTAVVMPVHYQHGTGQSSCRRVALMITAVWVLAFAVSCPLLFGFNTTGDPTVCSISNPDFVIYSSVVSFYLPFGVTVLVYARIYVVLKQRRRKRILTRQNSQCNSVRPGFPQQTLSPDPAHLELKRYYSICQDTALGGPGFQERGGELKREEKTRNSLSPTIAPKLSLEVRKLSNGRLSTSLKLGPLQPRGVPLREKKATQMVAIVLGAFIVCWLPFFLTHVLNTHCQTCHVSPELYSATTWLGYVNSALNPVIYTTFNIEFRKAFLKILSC
Procedure, shortened: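 SPA radioligand binding on Jump-In HEK membranes expressing human D3 receptor (4 µg/well) with 2 nM [3H]-methylspiperone (final), incubated 120 min at 25 °C. Non-specific binding defined with 10 µM butaclamol. Percent inhibition computed against total and non-specific binding; Ki from dose-response curves.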

hERG channel (IKr) = hERG channel (IKr) (Homo sapiens (Human), UniProt Q12809); assay: hERG test (whole cell patch clamp, IKr); format: cell-based; details: human, CHO cells expressing hERG channel, pH 7.4, 3 μM, tail peak current
Sequence of hERG channel (IKr) (Q12809 whole entry): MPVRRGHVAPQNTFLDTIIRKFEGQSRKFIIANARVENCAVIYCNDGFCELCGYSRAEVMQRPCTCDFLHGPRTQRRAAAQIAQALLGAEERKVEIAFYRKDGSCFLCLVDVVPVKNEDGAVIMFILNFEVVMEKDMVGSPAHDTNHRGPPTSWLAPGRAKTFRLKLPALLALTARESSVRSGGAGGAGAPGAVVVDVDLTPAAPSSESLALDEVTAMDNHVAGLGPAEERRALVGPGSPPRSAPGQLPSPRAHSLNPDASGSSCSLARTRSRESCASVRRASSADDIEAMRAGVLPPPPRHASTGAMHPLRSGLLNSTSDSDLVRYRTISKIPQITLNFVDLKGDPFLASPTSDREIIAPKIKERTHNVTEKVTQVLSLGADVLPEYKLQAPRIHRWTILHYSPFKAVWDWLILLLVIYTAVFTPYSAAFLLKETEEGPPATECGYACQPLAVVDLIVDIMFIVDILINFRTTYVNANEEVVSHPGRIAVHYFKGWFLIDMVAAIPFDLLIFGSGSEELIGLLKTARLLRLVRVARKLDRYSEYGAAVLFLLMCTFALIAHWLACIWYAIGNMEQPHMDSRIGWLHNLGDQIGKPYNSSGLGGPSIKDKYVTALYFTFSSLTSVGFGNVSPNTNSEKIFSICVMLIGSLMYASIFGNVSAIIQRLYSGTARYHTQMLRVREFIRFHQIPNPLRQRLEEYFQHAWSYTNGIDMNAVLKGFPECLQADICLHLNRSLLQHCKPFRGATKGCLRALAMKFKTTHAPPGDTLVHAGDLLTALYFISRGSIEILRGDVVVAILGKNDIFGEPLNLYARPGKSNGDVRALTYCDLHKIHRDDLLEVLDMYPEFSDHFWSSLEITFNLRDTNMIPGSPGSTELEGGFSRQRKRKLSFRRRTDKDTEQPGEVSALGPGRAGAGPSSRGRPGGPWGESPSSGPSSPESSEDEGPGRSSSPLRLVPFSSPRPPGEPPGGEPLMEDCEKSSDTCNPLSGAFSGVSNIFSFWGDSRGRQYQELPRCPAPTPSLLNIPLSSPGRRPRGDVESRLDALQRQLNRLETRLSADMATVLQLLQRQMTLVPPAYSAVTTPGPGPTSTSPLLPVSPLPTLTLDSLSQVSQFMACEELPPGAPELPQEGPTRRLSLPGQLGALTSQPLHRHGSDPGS
Source text: Test Example 10: hERG Test
For the purpose of assessing risk of an electrocardiogram QT interval prolongation of the compound of the present invention, effects of the compound of the present invention on delayed rectifier K+ current (IKr), which plays an important role in the ventricular repolarization process, was studied using CHO cells expressing human ether-a-go-go related gene (hERG) channel.
After a cell was retained at a membrane potential of −80 mV by whole cell patch clamp method using an automated patch clamp system (QPatch; Sophion Bioscience A/S) and gave a leak potential of −50 mV, IKr induced by depolarization pulse stimulation at +20 mV for 2 seconds and, further, repolarization pulse stimulation at −50 mV for 2 seconds, was recorded. After the generated current was stabilized, extracellular solution (NaCl: 145 mmol/L, KCl: 4 mmol/L, CaCl2): 2 mmol/L, MgCl2: 1 mmol/L, glucose: 10 mmol/L, HEPES (4-(2-hydroxyethyl)-1-piperazineethanesulfonic acid): 10 mmol/L, pH=7.4), in which the compound of the present invention had been dissolved at an objective concentration in the extracellular solution, was applied to the cell at room temperature for 7 minutes or more. From the recording IKr, an absolute value of the tail peak current was measured based on the current value at the resting membrane potential using analysis software (QPatch Assay software; Sophion Bioscience A/S). Further, the % inhibition of tail peak current for the compound of the present invention relative to the tail peak current after application of the solution (0.1% dimethyl sulfoxide solution) was calculated to assess influence of the compound of the present invention on IKr.

Sequence of human recombinant dopamine D2 receptor (P14416 whole entry): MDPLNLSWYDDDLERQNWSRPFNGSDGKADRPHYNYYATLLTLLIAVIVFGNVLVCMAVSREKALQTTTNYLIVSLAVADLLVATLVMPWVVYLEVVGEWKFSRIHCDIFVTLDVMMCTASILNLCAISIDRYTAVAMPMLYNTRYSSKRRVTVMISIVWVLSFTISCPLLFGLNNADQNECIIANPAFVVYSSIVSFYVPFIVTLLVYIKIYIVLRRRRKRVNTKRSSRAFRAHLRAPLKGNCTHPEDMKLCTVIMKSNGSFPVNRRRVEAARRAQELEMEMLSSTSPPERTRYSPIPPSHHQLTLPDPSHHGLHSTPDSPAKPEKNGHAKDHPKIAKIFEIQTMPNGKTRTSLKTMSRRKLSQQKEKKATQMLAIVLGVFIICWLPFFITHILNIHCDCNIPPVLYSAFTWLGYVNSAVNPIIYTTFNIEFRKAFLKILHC

| Compound | Ki [1] | Ki [2] | inhibition at 3 µM (hERG channel (IKr)) |
| --- | --- | --- | --- |
| COC(CN1CCc2sc(OCC(C)(F)F)nc2C1)C1CC2(CC(NC(=O)c3cccc4nn(C)cc34)C2)C1 (single isomer, unassigned) [Example I-047] | 110 nM | 0.058 nM | 13.6% |
| Cn1cc2c(C(=O)N[C@H]3CC4(C3)C[C@](F)(CCN3CCc5nc(OCC(F)(F)F)sc5CC3)C4)cccc2n1 (single isomer, unassigned) [Example I-049] | 310 nM | 0.33 nM | 36.8% |
| CC(Oc1nc2c(s1)CCN(CC[C@H]1CC[C@H](NC(=O)c3cccc4nn(C)cc34)CC1)CC2)C(F)F (single isomer, unassigned) [Example I-112] | > 2200 nM | 0.12 nM | 23.5% |
| CN1Cc2c(C(=O)N[C@H]3CC[C@H](CCN4CCc5sc(OC6CC(F)(F)C6)nc5C4)CC3)cccc2C1=O [Example I-001] | 290 nM | 0.2 nM | 21.3% |
| Cn1cc2c(C(=O)N[C@H]3CC[C@H](CCN4CCc5ccc(OCC(C)(C)F)nc5CC4)CC3)cccc2n1 [Example I-003] | 780 nM | 0.15 nM | 31% |
| Cn1cc(CC(=O)N[C@H]2CC[C@H](CCN3CCc4nc(OCC(C)(F)F)sc4CC3)CC2)cn1 [Example I-004] | 700 nM | 0.15 nM | 21.6% |
| Cc1ncc(CC(=O)N[C@H]2CC[C@H](CCN3CCc4ccc(OC(C)C)nc4CC3)CC2)o1 [Example I-006] | > 1900 nM | 0.59 nM | 23% |
| Cc1nnc(CC(=O)N[C@H]2CC[C@H](CCN3CCc4ccc(OC(C)C)nc4CC3)CC2)s1 [Example I-007] | 1500 nM | 0.68 nM | 33.7% |
| Cc1nc(CC(=O)N[C@H]2CC[C@H](CCN3CCc4nc(OCC(C)(F)F)sc4CC3)OC2)no1 [Example I-008] | > 1900 nM | 0.96 nM | 20.8% |
| Cn1cc2c(C(=O)N[C@H]3CC[C@H](CCN4CCc5nc(OCC(C)(F)F)sc5CC4)OC3)cccc2n1 [Example I-009] | 690 nM | 0.12 nM | 33.8% |
| COc1cc(CC(=O)N[C@H]2CC[C@H](CCN3CCc4nc(OCC(C)(F)F)sc4CC3)OC2)on1 [Example I-010] | 930 nM | 0.13 nM | 32% |
| Cc1nnc(CC(=O)N[C@H]2CC[C@H](CCN3CCc4sc(C5CC(F)(F)C5)nc4C3)OC2)o1 [Example I-011] | 950 nM | 0.32 nM | 10.6% |
| CN1Cc2c(C(=O)N[C@H]3CC[C@H](CCN4CCc5sc(C6CC(F)(F)C6)nc5C4)CC3)cccc2C1=O [Example I-012] | 260 nM | 0.15 nM | 19% |
| Cc1nc(CC(=O)N[C@H]2CC[C@](F)(CCN3CCc4nc(OCC(C)(F)F)sc4CC3)CC2)no1 [Example I-013] | 920 nM | 0.53 nM | 21.4% |
| Cc1nnc(CC(=O)N[C@H]2CC[C@](F)(CCN3CCc4nc(OCC(C)(F)F)sc4CC3)CC2)o1 [Example I-014] | 980 nM | 0.48 nM | 3.83% |
| Cc1cnc(CC(=O)N[C@H]2CC[C@](F)(CCN3CCc4nc(OCC(C)(F)F)sc4CC3)CC2)o1 [Example I-015] | 1000 nM | 0.26 nM | 24.3% |
| Cn1cc2c(C(=O)NN3CCC(CCN4CCc5ccc(OCC(F)(F)F)nc5CC4)CC3)cccc2n1 [Example I-016] | 850 nM | 0.039 nM | 19.1% |
| Cn1cc(CC(=O)N[C@H]2CC[C@](F)(CCN3CCc4ccc(OCC(C)(F)F)nc4CC3)CC2)cn1 [Example I-017] | 240 nM | 0.063 nM | 21.6% |
| Cc1nnc(CC(=O)N[C@H]2CC[C@](F)(CCN3CCc4ccc(OCC(C)(F)F)nc4CC3)CC2)s1 [Example I-018] | 190 nM | 0.035 nM | 33.8% |
| Cc1ncccc1C(=O)N[C@H]1CC[C@H](CCN2CCc3nc(OC4CC(F)(F)C4)sc3CC2)CC1 [Example I-019] | > 1800 nM | 0.37 nM | 8.86% |
| Cc1nnc(CC(=O)N[C@H]2CC[C@H](CCN3CCc4nc(OC5CC(F)(F)C5)sc4CC3)CC2)o1 [Example I-020] | > 1800 nM | 0.27 nM | 23.1% |

| Compound | Ki [1] | Ki [2] | inhibition at 3 µM (hERG channel (IKr)) |
| --- | --- | --- | --- |
| Cn1cc(CC(=O)N[C@H]2CC[C@H](CCN3CCc4nc(OC5CC(F)(F)C5)sc4CC3)CC2)cn1 [Example I-021] | 1900 nM | 0.15 nM | 24.3% |
| Cc1cc(OCC(=O)N[C@H]2CC[C@H](CCN3CCc4nc(OC5CC(F)(F)C5)sc4CC3)CC2)no1 [Example I-022] | > 2300 nM | 0.1 nM | 32.6% |
| Cn1ncc(CC(=O)N[C@H]2CC[C@H](CCN3CCc4nc(OC5CC(F)(F)C5)sc4CC3)CC2)n1 [Example I-023] | > 2200 nM | 0.11 nM | 16.5% |
| Cc1nc(CC(=O)N[C@H]2CC[C@](F)(CCN3CCc4ccc(OCC(F)F)nc4CC3)CC2)no1 [Example I-024] | > 2200 nM | 0.2 nM | 18.7% |
| Cc1nnc(CC(=O)N[C@H]2CC[C@](F)(CCN3CCc4ccc(OCC(F)F)nc4CC3)CC2)o1 [Example I-025] | 820 nM | 0.46 nM | 14.9% |
| Cc1ncc(CC(=O)N[C@H]2CC[C@](F)(CCN3CCc4ccc(OCC(F)F)nc4CC3)CC2)o1 [Example I-026] | 1100 nM | 0.095 nM | 20.1% |
| Cn1cc(CC(=O)N[C@H]2CC[C@](F)(CCN3CCc4ccc(OCC(F)F)nc4CC3)CC2)cn1 [Example I-027] | 1000 nM | 0.23 nM | 14.3% |
| Cn1cc2c(C(=O)NN3CCC(F)(CCN4CCc5sc(OCC(F)(F)F)nc5C4)CC3)cccc2n1 [Example I-028] | 640 nM | 0.41 nM | 9.09% |
| Cn1c(C(=O)N[C@H]2CC[C@](F)(CCN3CCc4ccc(OCC(F)F)nc4CC3)CC2)cccc1=O [Example I-029] | 610 nM | 0.36 nM | 8.37% |
| Cc1ncc(OCC(=O)N[C@H]2CC[C@](F)(CCN3CCc4ccc(OCC(F)F)nc4CC3)CC2)cn1 [Example I-030] | 610 nM | 0.3 nM | 26.1% |
| Cn1cc(CC(=O)N[C@H]2CC[C@H](CCN3CCc4ccc(OC5CCC5)nc4CC3)CC2)cn1 [Example I-032] | > 2200 nM | 0.48 nM | 31.9% |
| Cc1ncc(CC(=O)N[C@H]2CC[C@H](CCN3CCc4ccc(OC5CCC5)nc4CC3)CC2)o1 [Example I-033] | > 2200 nM | 0.78 nM | 12.2% |
| Cc1ncccc1C(=O)N[C@H]1CC[C@H](CCN2CCc3nc(OCC(C)(F)F)sc3CC2)CC1 [Example I-034] | 560 nM | 0.36 nM | 34.3% |
| Cn1cc2c(C(=O)N[C@H]3CC[C@H](CCN4CCc5sc([C@H]6C[C@@H](F)C6)nc5C4)CC3)cccc2n1 [Example I-035] | 210 nM | 0.18 nM | 16% |
| Cc1cnc(CC(=O)N[C@H]2CC[C@H](CCN3CCc4nc(OCC(C)(F)F)sc4CC3)CC2)o1 [Example I-036] | 910 nM | 0.54 nM | 29.8% |
| Cc1ncc(/C=C/C(=O)N[C@H]2CC[C@H](CCN3CCc4nc(OCC(C)(F)F)sc4CC3)CC2)cn1 [Example I-037] | 240 nM | 0.097 nM | 28% |
| Cc1cnc(CC(=O)N[C@H]2CC[C@](F)(CCN3CCc4nc(OCC(F)F)sc4CC3)CC2)o1 [Example I-038] | > 1700 nM | 0.81 nM | 21.4% |
| Cc1nc(CC(=O)N[C@H]2CC[C@](F)(CCN3CCc4nc(OCC(F)F)sc4CC3)CC2)no1 [Example I-039] | 1200 nM | 1 nM | 22.3% |
| Cc1nnc(CC(=O)N[C@H]2CC[C@](F)(CCN3CCc4nc(OCC(F)F)sc4CC3)CC2)s1 [Example I-040] | 890 nM | 0.46 nM | 23.2% |
| Cc1cnc(CC(=O)N[C@H]2CC[C@H](CCN3CCc4sc(C5CC(F)(F)C5)nc4C3)CC2)o1 [Example I-041] | 620 nM | 0.17 nM | 18.1% |
